From patent US10842785B2, “PIM kinase inhibitors in combination with RNA splicing modulators/inhibitors for treatment of cancers” (UNIVERSITY OF MARYLAND, BALTIMORE COUNTY, priority 2016, dated 2020)

What was measured:
Assay type in all cases: cell-based
[1] = tested on: CHAC1, NFYA and Cog5; test: RT-PCR for splice variants of CHAC1, NFYA and Cog5 in MOLM16 cells; details: MOLM16, 1 μM, 6 hrs
From the text: (§1) Control=DMSO treated. […] Arrow indicate bands that change after AZD1208 treatment.
(§2) A few targets from the microarray data were chosen, that being, ones that were affected by PIM kinase inhibition. The procedure was manual curation of data, followed by reference seq analysis of splice variants to determine avalibilty of sequence information. Initially, changes in splice variants of a known apoptotic regulator, MCL1 were validated. The smaller isoform of MCL1 is pro-apototic, while the longer isoform has anti-apototic functions.

[2] = tested on: MCL1 splice variants; test: Taqman qRT-PCR for MCL1 splice variants in OCI-M1 cells; details: 1 μM, 6 hrs
From the text: as §1, §2

[3] = tested on: EOL1 cells; test: Microarray (Affymetrix HTA 2.0) profiling of alternative splicing changes in EOL1 cells
Experimental: Due to the large number of splicing factors as PIM substrates, a more globally spread regulation of splicing by PIM kinases was envisioned. As such, a microarray approach was chosen to profile the entire transcriptome for changes in alternative splicing, due to inhibition of PIM kinase activity. MOLM16 cells were treated with DMSO/AZD1208 (1 μM) (pan-PIM inhibitor) for 6 hours. This experiment was performed in triplicates and RNA was run on a bioanalyzer to confirm sample intergrity, as outline in FIG. 3. A similar procedure was used for analysis of both MOLM16 and EOL1 cells. After 1 μM AZD1208 treatment for 6 hours, cells were harvested, and total RNA was isolated. The RNA quality was confirmed using a bio-analyzer. High quality RNA samples were further processed and hybridized to Affymetrix HTA 2.0 microarrays. The results obtained were processed using Affymetrix expression console and transcriptome analysis console (TAC) software. […] Similar experiment was also performed for EOL1 cells. […] Each point represents a unique probe selection region and the splicing index values for MOLM16 (X axis) and EOL1 cells (Y axis) are shown. All the points in +X+Y and −X−Y quadrants are splicing changes consistent with directionality of the change. […] Microsoft Excel functions were used to identify the overlap between these lists of splicing changes. […] When the directionality of these changes was considered, it was noted that most of these changes were also consistantly in the same direction (all but 39 out of 2599).

[4] = tested on: SR protein phosphorylation; test: Western blot using phospho-SR protein antibody; details: MOLM16 and EOL1 cells, versus DMSO treated controls
Experimental: MOLM16 and EOL1 cells were treated with AZD1208 or SRPIN340 for indicated concentration and time. Cells lysates from treated cells were used for western blot analysis.
Phosphorylation of splicing factors is known to play a role in regulation of splicing. Phosphorylation of splicing factors called serine arginine rich proteins (SR proteins) is known to regulate their function and localization. Serine arginine rich protein kinases (SRPK1 and SRPK2) phosphorylate these proteins and inhibition of SRPK activity using the small molecule modulator SRPIN340 leads to reduction in phosphorylation. The level of SR protein phosphorylation can be visualized using phospho-SR protein antibody. It was investigated to determine if PIM kinases regulate SRPK activity to indirectly lead to changes in splicing. […] Thus, it was concluded that the SRPK activity was not affected by PIM kinase inhibition.

[5] = tested on: MOLM16 cells; test: MTT assay (number of live cells), MOLM16 cells, single inhibitors and combination, Compusyn CI; details: 48 hours
Experimental: (§3) General experimental procedure: 10,000 (MOLM16) or 20,000 (EOL1) cells were seeded per well in 96-well plates. After culturing overnight, AZD1208 and/or Pladienolide B/SRPIN340 were added to wells in quadruplicates at 5 different concentrations. Different ratios between AZD1208 and Pladienolide B were tried in MOLM16 and EOL1 cells. At 48 hours the MTT metabolism indicative of number of live cells was measured by MTT assay (Promega, Cat: G4000). The resulting values were used to evaluate the Fa (fraction affected) values, which were plugged into the Compusyn software to calculate the combination indices (CI values) at ED50, ED75, ED90 and ED95 (ED—Effective dose of combination).
These values of drug dose and effect (fraction of cells affected by the treatment—FA values) were input into the Compusyn software to estimate the interaction between the two drugs.

[6] = tested on: MCL1 splice variants; test: Taqman qRT-PCR for MCL1 splice variants in MOLM16 cells; details: MOLM16, 1 μM, 6 hrs
From the text: as §1, §2

[7] = tested on: MOLM16 cells; test: Microarray (Affymetrix HTA 2.0) profiling of alternative splicing changes in MOLM16 cells; details: MOLM16, 1 μM, 6 hours
Experimental: Due to the large number of splicing factors as PIM substrates, a more globally spread regulation of splicing by PIM kinases was envisioned. As such, a microarray approach was chosen to profile the entire transcriptome for changes in alternative splicing, due to inhibition of PIM kinase activity. MOLM16 cells were treated with DMSO/AZD1208 (1 μM) (pan-PIM inhibitor) for 6 hours. This experiment was performed in triplicates and RNA was run on a bioanalyzer to confirm sample intergrity, as outline in FIG. 3. A similar procedure was used for analysis of both MOLM16 and EOL1 cells. After 1 μM AZD1208 treatment for 6 hours, cells were harvested, and total RNA was isolated. The RNA quality was confirmed using a bio-analyzer. High quality RNA samples were further processed and hybridized to Affymetrix HTA 2.0 microarrays. The results obtained were processed using Affymetrix expression console and transcriptome analysis console (TAC) software. […] Similar experiment was also performed for EOL1 cells. […] Each point represents a unique probe selection region and the splicing index values for MOLM16 (X axis) and EOL1 cells (Y axis) are shown. All the points in +X+Y and −X−Y quadrants are splicing changes consistent with directionality of the change. […] Microsoft Excel functions were used to identify the overlap between these lists of splicing changes. […]

[8] = tested on: EOL1 cells; test: MTT assay (number of live cells), EOL1 cells, single inhibitors and combination, Compusyn CI; details: 48 hours
Experimental: as §3
To further confirm the finding in MOLM16 cells, it was tested whether the combination of AZD1208 and Pladienolide B is synergistic in another AML cell line—EOL1. Different ratios between AZD1208 and Pladienolide B were tested to identify the ideal ratio that provides maximum synergy.

Question: Which “changes in splice variants of CHAC1, NFYA and Cog5” value [1] does the source give for `N[C@@H]1CCCN(c2c(/C=C3/SC(=O)NC3=O)cccc2-c2ccccc2)C1` [AZD1208, (5E)-5-[[2-[(3R)-3-aminopiperidin-1-yl]-3-phenylphenyl]methylidene]-1,3-thiazolidine-2,4-dione] here?
Answer: The value was “in agreement with the microarray data”.

Question: And the “level of both MCL1 splice variants” value [2]?
Answer: The value was “did not show any change”.

Question: What about the “changes in splicing after PIM kinase inhibition” value ([3]; EOL1, 1 μM, 6 hrs.) of the same molecule?
Answer: The value was “widespread changes were observed in splicing”.

Question: And the “overlapping splicing changes not in the same direction” value ([3]; out of 2599 changes shared by MOLM16 and EOL1, 1 μM, 6 hours)?
Answer: Its value is 39.

Question: What about the “splicing changes observed in similar probe selection regions” value ([3]; overlap between MOLM16 and EOL1 lists, 1 μM, 6 hours) of the same molecule?
Answer: Its value is 2599.

Question: And the SR protein phosphorylation [4]?
Answer: The SR protein phosphorylation was “does not change SR protein phosphorylation”.

Question: And the “Effect (fraction of cells affected, FA)” value ([5]; MOLM16, SRPIN340 testing Trial 1, 0.03 μM)?
Answer: The value was 0.396.

Question: What about the “Effect (fraction of cells affected, FA)” value ([5]; MOLM16, SRPIN340 testing Trial 1, 0.06 μM) of the same molecule?
Answer: Its value is 0.521.

Question: And the “Effect (fraction of cells affected, FA)” value ([5]; MOLM16, SRPIN340 testing Trial 1, 0.12 μM)?
Answer: Its value is 0.628.

Question: And the “Effect (fraction of cells affected, FA)” value ([5]; MOLM16, Trial 1, 0.024 μM)?
Answer: Its value is 0.415.

Question: What about the “Effect (fraction of cells affected, FA)” value ([5]; MOLM16, Trial 1, 0.048 μM) of the same molecule?
Answer: The value was 0.471.

Question: And the “Effect (fraction of cells affected, FA)” value ([5]; MOLM16, Trial 1, 0.072 μM)?
Answer: The value was 0.564.

Question: And the “Effect (fraction of cells affected, FA)” value ([5]; MOLM16, Trial 1, 0.096 μM)?
Answer: The value was 0.594.

Question: And the “Effect (fraction of cells affected, FA)” value ([5]; MOLM16, Trial 1, 0.12 μM)?
Answer: Its value is 0.614.

Question: And the “Effect (fraction of cells affected, FA)” value ([5]; MOLM16, Trial 2, 0.024 μM)?
Answer: The value was 0.337.

Question: What about the “Effect (fraction of cells affected, FA)” value ([5]; MOLM16, Trial 2, 0.048 μM) of the same molecule?
Answer: The value was 0.478.

Question: What about the “Effect (fraction of cells affected, FA)” value ([5]; MOLM16, Trial 2, 0.072 μM) of the same molecule?
Answer: Its value is 0.534.

Question: What about the “Effect (fraction of cells affected, FA)” value ([5]; MOLM16, Trial 2, 0.096 μM) of the same molecule?
Answer: Its value is 0.566.

Question: What about the “Effect (fraction of cells affected, FA)” value ([5]; MOLM16, Trial 2, 0.12 μM) of the same molecule?
Answer: Its value is 0.622.

Question: And the “Effect (fraction of cells affected, FA)” value ([5]; MOLM16, Trial 3, 0.024 μM)?
Answer: Its value is 0.344.

Question: What about the “Effect (fraction of cells affected, FA)” value ([5]; MOLM16, Trial 3, 0.048 μM) of the same molecule?
Answer: The value was 0.455.

Question: What about the “Effect (fraction of cells affected, FA)” value ([5]; MOLM16, Trial 3, 0.072 μM) of the same molecule?
Answer: The value was 0.524.

Question: What about the “Effect (fraction of cells affected, FA)” value ([5]; MOLM16, Trial 3, 0.096 μM) of the same molecule?
Answer: The value was 0.554.

Question: And the “Effect (fraction of cells affected, FA)” value ([5]; MOLM16, Trial 3, 0.12 μM)?
Answer: Its value is 0.606.

Question: What about the “level of shorter isoform of MCL1” value [6] of the same molecule?
Answer: The value was “specifically and significantly reduces”.

Question: What about the “gene products with changes in splicing indices” value [7] of the same molecule?
Answer: The value was > 5000.

Question: What about the “splicing events with changes in splicing indices” value [7] of the same molecule?
Answer: The value was > 10,000.

Question: What about the “Effect (fraction of cells affected, FA)” value ([8]; EOL1, Trial 1, 0.024 μM) of the same molecule?
Answer: The value was 0.395.

Question: And the “Effect (fraction of cells affected, FA)” value ([8]; EOL1, Trial 1, 0.048 μM)?
Answer: The value was 0.529.

Question: What about the “Effect (fraction of cells affected, FA)” value ([8]; EOL1, Trial 1, 0.072 μM) of the same molecule?
Answer: The value was 0.675.

Question: What about the “Effect (fraction of cells affected, FA)” value ([8]; EOL1, Trial 1, 0.096 μM) of the same molecule?
Answer: Its value is 0.684.

Question: And the “Effect (fraction of cells affected, FA)” value ([8]; EOL1, Trial 1, 0.12 μM)?
Answer: Its value is 0.680.

Question: What about the “Effect (fraction of cells affected, FA)” value ([8]; EOL1, Trial 2, 0.024 μM) of the same molecule?
Answer: The value was 0.432.

Question: What about the “Effect (fraction of cells affected, FA)” value ([8]; EOL1, Trial 2, 0.048 μM) of the same molecule?
Answer: The value was 0.587.

Question: What about the “Effect (fraction of cells affected, FA)” value ([8]; EOL1, Trial 2, 0.072 μM) of the same molecule?
Answer: The value was 0.650.

Question: And the “Effect (fraction of cells affected, FA)” value ([8]; EOL1, Trial 2, 0.096 μM)?
Answer: The value was 0.683.

Question: What about the “Effect (fraction of cells affected, FA)” value ([8]; EOL1, Trial 2, 0.12 μM) of the same molecule?
Answer: The value was 0.698.

Question: And the “Effect (fraction of cells affected, FA)” value ([8]; EOL1, Trial 3, 0.024 μM)?
Answer: Its value is 0.373.

Question: And the “Effect (fraction of cells affected, FA)” value ([8]; EOL1, Trial 3, 0.048 μM)?
Answer: Its value is 0.523.

Question: What about the “Effect (fraction of cells affected, FA)” value ([8]; EOL1, Trial 3, 0.072 μM) of the same molecule?
Answer: Its value is 0.600.

Question: What about the “Effect (fraction of cells affected, FA)” value ([8]; EOL1, Trial 3, 0.096 μM) of the same molecule?
Answer: Its value is 0.633.

Question: What about the “Effect (fraction of cells affected, FA)” value ([8]; EOL1, Trial 3, 0.12 μM) of the same molecule?
Answer: The value was 0.642.
